The values that follow are results of earlier work, collected in patent US20190134140A1, “ORALLY ADMINISTERED COMPOSITION FOR TREATING CYSTIC FIBROSIS, COPD, ASTHMA AND OTHER INFLAMMATORY CONDITIONS” (priority 2017, published 2019).

The target of one data set is dF508 (Homo sapiens, UniProt P13569, DEL508-508).

Where two headings read alike, the source gives them in different places.

Chain of dF508 (P13569 with tags, fused parts or gaps DEL508-508): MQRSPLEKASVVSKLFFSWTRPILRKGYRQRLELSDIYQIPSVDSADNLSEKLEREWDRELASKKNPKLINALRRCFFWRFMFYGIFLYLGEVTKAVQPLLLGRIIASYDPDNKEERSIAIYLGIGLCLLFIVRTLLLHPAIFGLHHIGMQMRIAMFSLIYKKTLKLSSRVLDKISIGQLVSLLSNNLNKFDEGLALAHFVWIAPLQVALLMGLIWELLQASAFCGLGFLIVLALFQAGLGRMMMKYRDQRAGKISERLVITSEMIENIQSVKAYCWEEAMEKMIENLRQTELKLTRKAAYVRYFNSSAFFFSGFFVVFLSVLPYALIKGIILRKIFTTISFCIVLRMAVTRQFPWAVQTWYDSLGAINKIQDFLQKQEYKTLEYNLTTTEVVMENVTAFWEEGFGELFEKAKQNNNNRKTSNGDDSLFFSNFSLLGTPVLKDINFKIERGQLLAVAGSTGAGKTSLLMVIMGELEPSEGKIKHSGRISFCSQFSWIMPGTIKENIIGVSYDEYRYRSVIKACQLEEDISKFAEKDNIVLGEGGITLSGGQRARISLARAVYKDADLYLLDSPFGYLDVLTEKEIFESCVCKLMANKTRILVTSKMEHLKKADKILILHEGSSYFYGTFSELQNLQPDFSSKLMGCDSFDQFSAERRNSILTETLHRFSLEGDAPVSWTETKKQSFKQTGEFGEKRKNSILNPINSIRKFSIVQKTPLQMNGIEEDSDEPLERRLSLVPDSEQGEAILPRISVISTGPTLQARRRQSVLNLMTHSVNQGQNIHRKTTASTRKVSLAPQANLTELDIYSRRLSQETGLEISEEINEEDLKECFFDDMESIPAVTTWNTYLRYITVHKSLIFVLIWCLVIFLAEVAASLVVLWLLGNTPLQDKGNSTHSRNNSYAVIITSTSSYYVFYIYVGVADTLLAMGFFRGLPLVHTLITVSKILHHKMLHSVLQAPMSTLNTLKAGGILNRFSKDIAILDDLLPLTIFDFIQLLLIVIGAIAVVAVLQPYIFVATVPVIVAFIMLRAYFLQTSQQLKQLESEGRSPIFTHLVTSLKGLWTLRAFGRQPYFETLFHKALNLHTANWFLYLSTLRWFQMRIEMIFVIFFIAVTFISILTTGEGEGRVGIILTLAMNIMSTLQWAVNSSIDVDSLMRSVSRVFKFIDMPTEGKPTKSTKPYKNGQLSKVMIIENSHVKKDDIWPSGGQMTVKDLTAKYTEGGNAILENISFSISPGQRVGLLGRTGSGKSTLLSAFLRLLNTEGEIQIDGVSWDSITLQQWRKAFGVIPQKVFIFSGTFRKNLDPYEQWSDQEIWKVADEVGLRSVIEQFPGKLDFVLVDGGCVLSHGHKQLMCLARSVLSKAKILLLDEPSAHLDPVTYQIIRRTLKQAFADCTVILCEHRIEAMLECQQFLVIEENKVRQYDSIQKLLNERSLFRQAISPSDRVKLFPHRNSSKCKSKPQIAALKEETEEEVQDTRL

Regarding `O=c1c(O)c(-c2ccc(O)c(O)c2)oc2cc(O)cc(O)c12` [Quercetin], the ciliary beat frequency result in the data set with ciliary beat frequency is “increase ciliary beat frequency”. For the same compound, the “activation of dF508” value on dF508 is “activate dF508”.

Consider `Oc1ccc(C=Cc2cc(O)cc(O)c2)cc1` [Resveratrol], for which the enhancement in permeability by setting is: (combined with curcumin) 300%; (combined with piperine) 350%; (combined with quercetin) 310%.
